According to patent publication EP3495372B1 (priority 2017, dated 2019):

Tests used:
[1] = cited from earlier work
[2] = tested on: differentiated SH-SY5Y cells; assay: Apoptosis detection by Hoechst 33258 staining; format: cell-based, human; settings: 25 and 50 µM co-treatment, 20 µM Aβ1-42, 24 h
Method: Apoptosis detection by Hoechst 33258 staining: Hoechst 33258 staining was used to detect apoptotic nuclei. […] Then, cells fixed with 4% paraformaldehyde in phosphate buffered saline at 4 °C for 30 min. After washing cells with PBS, the nuclear DNAs were incubated with […] Hoechst 33258 fluorescent dye for 5 min at room temperature. Cells were observed and photographed under a fluorescence microscopy (Leica® DM IL LED).

[3] = tested on: differentiated SH-SY5Y human neuroblastoma cells; assay: MTT assay, neuroprotective effects against Aβ1-42 cytotoxicity; format: cell-based; settings: 24 h, read-out: increase in the cell viability (MTT assay)
Method: Cell cultures and differentiation: SH-SY5Y cell line were growth in DMEM:F12 (1:1) media including 10% FBS and 1% penicillin/streptomycin at 37 °C and 5% CO2 until cells reach confluence. Then, cells harvested via using trypsin/EDTA solution and transferred to 48 well plates. For differentiation, media were changed to supplemented media with 10 µg/mL retinoic acid and incubated for 5 days. Finally, media were changed into serum free media supplementing with both 10 µM retinoic acid and 25 ng/mL BDNF. Differentiated cells were determined under invert microscope and the cells were used within 10 days (Encinas M, Iglesias M, Liu Y, Wang H, Muhaisen A, Ceña V, Gallego C, Comella JX. Sequential treatment of SH-SY5Y cells with retinoic acid and brain-derived neurotrophic factor gives rise to fully differentiated, neurotrophic factor-dependent, human neuron-like cells. J. Neurochem. 2002; 75:991-1003 e Cheung YT, Lau WKW, Yu MS, Lai CSW, Yeung SC, So KF, Chang RCC. Effects of all-trans-retinoic acid on human SH-SY5Y neuroblastoma as in vitro model in neurotoxicity research. Neurotoxicol. 2009; 30:127-135).
(§1) Control cells (n = 6) were cultured under normal conditions. 1% Triton X, ascorbic acid (10 µM) and hydrogen peroxide (H2O2, 25 µM) were used as positive controls for cell viability, TAC and TOS analysis, respectively.
The cultures without BLA, MEM, or LA were studied as negative control group. 1% Triton-X was added to the culture media to provide negative control group. MTT reduction and LDH release observed after 24 h of Aβ1-42-exposure at 20 µM.

[4] = target: T1, acetylcholinesterase (AChE) (Homo sapiens, UniProt P22303); assay: AChE activity in cellular model of Alzheimer's disease; format: cell-based; settings: with 20 µM Aβ1-42, 24 h
T1 construct: endogenous in cells
T1 sequence (P22303 32-614): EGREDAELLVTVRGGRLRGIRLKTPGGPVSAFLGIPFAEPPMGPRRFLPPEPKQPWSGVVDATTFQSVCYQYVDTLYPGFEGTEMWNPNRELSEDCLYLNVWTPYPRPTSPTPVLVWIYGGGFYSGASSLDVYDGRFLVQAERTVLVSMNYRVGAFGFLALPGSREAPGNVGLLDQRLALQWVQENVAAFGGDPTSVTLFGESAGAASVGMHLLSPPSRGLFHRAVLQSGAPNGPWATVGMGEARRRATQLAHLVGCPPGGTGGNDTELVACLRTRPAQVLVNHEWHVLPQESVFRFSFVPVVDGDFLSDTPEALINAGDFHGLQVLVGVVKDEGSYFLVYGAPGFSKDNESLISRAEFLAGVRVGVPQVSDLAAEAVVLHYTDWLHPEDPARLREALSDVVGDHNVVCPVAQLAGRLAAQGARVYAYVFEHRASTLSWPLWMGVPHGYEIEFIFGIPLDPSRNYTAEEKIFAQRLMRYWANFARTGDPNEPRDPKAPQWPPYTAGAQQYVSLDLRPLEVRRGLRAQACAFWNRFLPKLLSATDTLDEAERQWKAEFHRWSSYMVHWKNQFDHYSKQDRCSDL
Method: Determination of AChE activity: the activity of AChE within the cellular Alzheimer Disease's model was measured by the Acetylcholinesterase Assay Kit (Colorimetric) from Abcam^(R) (Cambridge, MA, USA) according to the manufacturer's recommended protocol.
AChE activity was evaluated in differentiated SH-SY5Y cells treated with BLA, LA, MEM (25 and 50 µM) or media alone for 24 h.

[5] = tested on: differentiated SH-SY5Y human neuroblastoma cells; assay: LDH assay, neuroprotective effects against Aβ1-42 cytotoxicity; format: cell-based; settings: with 20 µM Aβ1-42, 24 h
Method: Cell cultures and differentiation: SH-SY5Y cell line were growth in DMEM:F12 (1:1) media including 10% FBS and 1% penicillin/streptomycin at 37 °C and 5% CO2 until cells reach confluence. Then, cells harvested via using trypsin/EDTA solution and transferred to 48 well plates. For differentiation, media were changed to supplemented media with 10 µg/mL retinoic acid and incubated for 5 days. Finally, media were changed into serum free media supplementing with both 10 µM retinoic acid and 25 ng/mL BDNF.
(§2) Cytotechnol. 2015; 67:299-309.
as §1
The cultures without BLA, MEM, or LA were studied as negative control group. 1% Triton-X was added to the culture media to provide negative control group.

[6] = tested on: cultured human lymphocytes; assay: SCE assay (genotoxicity); format: cell-based
Method: (§3) All volunteers have signed informed consent.
SCE assay: to provide successive visualization of SCEs, 5-bromo-2-deoxyuridine was added at culture cells. Exactly 70 h and 30 min after beginning of the incubations, demecolcine ([…]) was added to the cultures. After hypotonic treatment (0.075 M KCl), followed by three repetitive cycles of fixation in methanol/acetic acid solution (3:1, v/v), centrifugation and re-suspension, the cell suspension was dropped onto chilled, grease-free microscopic slides, air-dried, aged for three days, and then differentially stained for the inspection of the SCE rate according to the fluorescence plus Giemsa (FPG) procedure. For each treatment condition, well-spread twenty-five second division metaphases containing 42-46 chromosomes per cell were scored and the values obtained were calculated as SCEs per cell.
The frequencies of sister chromatid exchanges (SCEs) with increasing BLA concentrations were investigated in cultured human lymphocytes.

[7] = tested on: cultured human blood cells; assay: Nucleic acid oxidation, 8-hydroxy-2'-deoxyguanosine assay; format: cell-based
From the text: as §3
Nucleic acid oxidation: 8-hydroxy-2'-deoxyguanosine assay kits (Cayman Chemical®) was used for determining 8- OH-dG levels in the cultures. It is a competitive assay that can be used for the quantification of 8-OHdG in homogenates and recognizes both free 8-OHdG and DNA-incorporated 8-OH-dG. This assay depends on the competition between 8-OH-dG and 8-OH-dGacetylcholinesterase (AChE) conjugate for a limited amount of 8-OH-dG monoclonal antibody (Abdel-Wahab BA, Metwally ME. Ginkgo biloba enhances the anticonvulsant and neuroprotective effects of sodium valproate against kainic acid-induced seizures in mice. J Pharmacol Toxicol. 2011; 6:679-690). All procedures were carried out in accordance with the provider's manual.
The levels of 8-OH-dG, a sensitive marker of oxidative DNA damage, were quantified about mitomycin (MMC) treatment. […] On the contrary, 8-OH-dG levels were not increased in the blood cells that were treated with BLA, MEM, and LA concentrations.

human neuron-like cells = assay: Apoptosis-Necrosis assay (Annexin V-FITC/PI flow cytometry); format: cell-based; settings: concentration not given
Method: Apoptosis-Necrosis assay: the frequencies of viable, apoptotic and necrotic cells were detected with the Annexin V-FITC apoptosis detection Kit I (BD Pharmingen, USA). Briefly, 5 x 10^4 cells were collected by centrifugation and cells resuspended in 500 µL of 1X binding buffer. Then, 5 µL of Annexin V-FITC and 5 µl of propidium iodide (PI 50 µg/ml) were added to the cultures and incubated 5 min in the dark. After that, cells fixed with 4% paraformaldehyde in phosphate buffered saline at 4 °C for 30 min. Cells from each well were stained according to the manufacturer's instructions and analyzed using a flow cytometer (CyFlow Cube 6, Partec, Germany). A computer system was used for data acquisition and analysis. Four different populations of cells are detected with the Annexin V-FITC kit: viable cells that are annexin negative and PI negative and express no fluorescence, early apoptotic cells that are annexin positive and PI negative and that express green fluorescence, late apoptotic/necrotic cells that are annexin positive and PI positive and that express green and orange fluorescence, necrotic cells that are annexin negative and PI positive and that express orange fluorescence (Majstorovic I, Vucevic D, Pavlovic B, Vasilijic S, Colic M. An anti-DEC-205 monoclonal antibody stimulates binding of thymocytes to rat thymic dendritic cells and promotes apoptosis of thymocytes. Cent Eur J Immunol. 2014; 39:411-418) .
BLA was considered as more able to protect the human neuron-like cells from Aβ1-42-induced necrosis and late apoptosis than LA or MEM.

[8] = tested on: SHSY-5Y human neuroblastoma cell line; assay: Antitumor activity, MTT and LDH assays; format: cell-based; settings: dose-dependent
Method: as §2
Antitumor activity of BLA and MEM was tested on SHSY-5Y human neuroblastoma cell line using MTT and LDH assays. Cells were grown to near-confluency before treatment. Growth of the cell line was inhibited by both drug application in a dose-dependent manner.

[9] = tested on: differentiated SH-SY5Y cells; assay: TAC and TOS analysis in cellular model of Alzheimer's disease; format: cell-based, human; settings: co-treatment with Aβ1-42
Method: TAC and TOS analysis: the automated TAC and TOS assays were carried out by commercially available kits (Rel Assay^(R) Diagnostics, Gaziantep, Turkey) on samples from the cultures.
as §1
Figure 5 and 6 show the effects of BLA and MEM treatments on TAC and TOS levels in cellular model of Alzheimer's disease, respectively.

## N[C@@H](Cc1ccc(B(O)O)cc1)C(=O)O [p-borophenyalanine]
[1]
  safe for humans at doses up to: up to 900 mg/kg

## CC12CC3CC(C)(C1)CC(N)(C3)C2 [MEM, memantine]
[2]
  nuclear integrity and apoptosis by Aβ1-42 (Hoechst 33258): protected nuclear integrity and inhibited apoptosis
[3]
  viability at 25 µM: 17.3%
  viability at 50 µM: 19.4%
  viability at 100 µM: 17.1%
[4]; 25 µM
  reduced Aβ-induced AChE activity: 14.57%
[4]; 50 µM
  reduced Aβ-induced AChE activity: 19.47%
[5]; 25 µM
  increase in the cell viability (inhibited LDH release): 56.81%
[5]; 50 µM
  increase in the cell viability (inhibited LDH release): 59.15%
[5]; 100 µM
  increase in the cell viability (inhibited LDH release): 57.28%
[6]
  frequencies of sister chromatid exchanges (SCEs): not higher than the control group
[7]
  8-OH-dG levels: not increased
Human neuron-like cells
  decreased the necrotic cell percentage by Aβ1-42: 65.97%
[8]
  antitumor effects (growth inhibition): moderate antitumor effects
[9]
  Aβ1-42-induced decreases of TAC and increases of TOS levels: modulated

## CO[C@@]12[C@H](COC(N)=O)C3=C(C(=O)C(C)=C(N)C3=O)N1C[C@@H]1N[C@@H]12 [MMC, mitomycin]
[7]; 10^-7 M, 24 h, positive control
  8-OH-dG concentrations: significantly increased
